Source: ChEMBL document CHEMBL1150338, “Prediction and identification of drug interactions with the human ATP-binding cassette transporter multidrug-resistance associated protein 2 (MRP2; ABCC2)” (J Med Chem, 2008)
Counter-ions that a name gives are not always drawn.
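Also: Inside-out membrane vesicles from Sf9 insect cells expressing human MRP2, measuring uptake of the estradiol glucuronide substrate, expressed as percent of untreated control.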

Each molecule was assayed against MRP2 (ABCC2) (Homo sapiens, UniProt Q92887) (assay: in vitro). Conditions: probe estradiol-17-beta-glucuronide.
Chain of MRP2 (ABCC2) (Q92887 whole entry): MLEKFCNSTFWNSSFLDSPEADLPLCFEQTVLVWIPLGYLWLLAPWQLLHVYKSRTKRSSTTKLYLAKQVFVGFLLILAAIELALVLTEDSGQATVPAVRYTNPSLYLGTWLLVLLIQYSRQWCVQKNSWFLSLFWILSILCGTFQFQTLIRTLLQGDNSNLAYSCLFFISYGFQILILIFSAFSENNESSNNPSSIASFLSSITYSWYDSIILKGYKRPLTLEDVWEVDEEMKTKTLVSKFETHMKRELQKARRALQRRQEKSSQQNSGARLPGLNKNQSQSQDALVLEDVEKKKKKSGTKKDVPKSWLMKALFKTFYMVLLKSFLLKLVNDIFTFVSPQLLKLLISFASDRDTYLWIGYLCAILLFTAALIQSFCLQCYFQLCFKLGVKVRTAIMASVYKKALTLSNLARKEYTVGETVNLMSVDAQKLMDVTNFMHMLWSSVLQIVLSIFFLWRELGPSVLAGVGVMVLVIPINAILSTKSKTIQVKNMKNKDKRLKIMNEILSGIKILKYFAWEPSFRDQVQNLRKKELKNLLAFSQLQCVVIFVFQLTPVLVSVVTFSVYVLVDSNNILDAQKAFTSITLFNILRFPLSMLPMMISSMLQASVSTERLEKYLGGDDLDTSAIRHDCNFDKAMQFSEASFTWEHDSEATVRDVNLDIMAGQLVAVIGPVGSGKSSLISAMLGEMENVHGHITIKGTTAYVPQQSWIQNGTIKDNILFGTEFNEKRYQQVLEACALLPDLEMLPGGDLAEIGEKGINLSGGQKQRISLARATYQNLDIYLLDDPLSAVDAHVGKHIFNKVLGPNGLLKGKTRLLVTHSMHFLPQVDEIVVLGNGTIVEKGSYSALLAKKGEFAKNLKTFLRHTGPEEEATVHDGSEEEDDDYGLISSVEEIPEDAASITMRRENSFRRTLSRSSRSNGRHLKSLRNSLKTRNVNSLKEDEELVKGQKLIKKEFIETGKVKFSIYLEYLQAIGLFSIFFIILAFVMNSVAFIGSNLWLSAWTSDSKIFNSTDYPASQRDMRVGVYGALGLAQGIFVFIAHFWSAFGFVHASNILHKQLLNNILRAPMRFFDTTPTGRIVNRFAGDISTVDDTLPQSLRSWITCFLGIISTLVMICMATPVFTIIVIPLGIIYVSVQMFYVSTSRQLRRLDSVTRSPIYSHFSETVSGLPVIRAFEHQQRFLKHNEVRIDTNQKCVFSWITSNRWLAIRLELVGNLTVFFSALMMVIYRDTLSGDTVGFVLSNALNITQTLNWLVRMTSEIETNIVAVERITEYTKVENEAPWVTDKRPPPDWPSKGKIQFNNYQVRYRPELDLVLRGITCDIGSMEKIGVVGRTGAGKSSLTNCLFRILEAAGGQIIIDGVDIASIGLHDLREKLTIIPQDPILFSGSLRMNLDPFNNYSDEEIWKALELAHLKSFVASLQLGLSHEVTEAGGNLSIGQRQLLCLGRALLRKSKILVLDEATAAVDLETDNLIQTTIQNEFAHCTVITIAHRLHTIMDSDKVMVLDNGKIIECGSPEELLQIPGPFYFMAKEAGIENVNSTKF
Description: Effect on human MRP2-mediated estradiol-17-beta-glucuronide transport in Sf9 cells inverted membrane vesicles relative to control
CC[C@]1(O)C[C@@H]2CN(CCc3c([nH]c4ccccc34)[C@@](C(=O)OC)(c3cc4c(cc3OC)N(C)[C@H]3[C@@](O)(C(=O)OC)[C@H](OC(C)=O)[C@]5(CC)C=CCN6CC[C@]43[C@@H]65)C2)C1 [VINBLASTINE] showed an activity of 78%.
C[C@]12CC[C@H]3[C@@H](CCC4=CC(=O)CC[C@@]43C)[C@@H]1CC[C@@H]2O [TESTOSTERONE] showed an activity of 140%.
CN(C)C(=O)C(CCN1CCC(O)(c2ccc(Cl)cc2)CC1)(c1ccccc1)c1ccccc1 [LOPERAMIDE] was tested, and the activity was 46%.
COc1ccc2c(c[n+](C)c3c4cc5c(cc4ccc23)OCO5)c1OC [CHELERYTHRINE CHLORIDE] showed an activity of 43%.
In the case of COCCc1ccc(OCC(O)CNC(C)C)cc1 (configuration not stated) [METOPROLOL], the activity is reported as 72%.
O=c1c(O)c(-c2ccc(O)cc2O)oc2cc(O)cc(O)c12 [MORIN] was tested, and the activity was 50%.
With Cc1nc2sccn2c(=O)c1CCN1CCC(=C(c2ccc(F)cc2)c2ccc(F)cc2)CC1 [RITANSERIN] the activity was 86%.
In the case of CC(C(=O)O)c1cccc(C(=O)c2ccccc2)c1 (configuration not stated) [KETOPROFEN], the activity is reported as 120%.
COc1ccc([C@@H]2Sc3ccccc3N(CCN(C)C)C(=O)[C@@H]2OC(C)=O)cc1 [DILTIAZEM] was tested, and the activity was 40%.
For C[C@]12C=CC(=O)C=C1CC[C@@H]1[C@@H]2C(=O)C[C@@]2(C)[C@H]1CC[C@]2(O)C(=O)CO [PREDNISONE], the activity was 51%.
CCC1=C(C)CN(C(=O)NCCc2ccc(S(=O)(=O)NC(=O)N[C@H]3CC[C@H](C)CC3)cc2)C1=O [GLIMEPIRIDE] was tested, and the activity was 142%.
In the case of C[C@H](CCC(=O)O)[C@H]1CC[C@H]2[C@@H]3[C@H](O)C[C@@H]4C[C@H](O)CC[C@]4(C)[C@H]3CC[C@]12C [CHENODIOL], the activity is reported as 101%.
Nc1ccc(C(=O)NCC(=O)O)cc1 [AMINOHIPPURIC ACID] gave an activity of 46%.
Molecule C[C@]12CCC(=O)C=C1CC[C@@H]1[C@@H]2[C@@H](O)C[C@@]2(C)[C@H]1CC[C@]2(O)C(=O)CO [HYDROCORTISONE] has an activity of 124%.
For O=C1NC(=O)C(c2ccccc2)(c2ccccc2)N1 [PHENYTOIN], the activity was 125%.
Molecule Cc1cn([C@H]2C[C@H](N=[N+]=[N-])[C@@H](CO)O2)c(=O)[nH]c1=O [ZIDOVUDINE] has an activity of 103%.
Molecule CC(C)Cc1ccc(C(C)C(=O)O)cc1 (configuration not stated) [IBUPROFEN] has an activity of 130%.
CC(=O)Nc1ccc(S(=O)(=O)Nc2ccc([N+](=O)[O-])cc2)cc1 gave an activity of 116%.
CC1=C(C(=O)O)N2C(=O)[C@@H](NC(=O)[C@H](N)c3ccc(O)cc3)[C@H]2SC1 [CEFADROXIL] gave an activity of 68%.
In the case of CCOc1ccc(NC(C)=O)cc1 [PHENACETIN], the activity is reported as 83%.
Molecule CC(C)(C(=O)O)c1ccc(C(O)CCCN2CCC(C(O)(c3ccccc3)c3ccccc3)CC2)cc1 (configuration not stated) [FEXOFENADINE] has an activity of 97%.
Molecule O=C1OC2(c3ccc(O)cc3Oc3cc(O)ccc32)c2ccccc21 [FLUORESCEIN] has an activity of 82%.
CC(=O)Nc1ccc(O[C@@H]2O[C@H](C(=O)O)[C@@H](O)[C@H](O)[C@H]2O)cc1 [ACETAMINOPHEN GLUCURONIDE] was tested, and the activity was 150%.
Molecule CCc1c2c(nc3ccc(OC(=O)N4CCC(N5CCCCC5)CC4)cc13)-c1cc3c(c(=O)n1C2)COC(=O)[C@]3(O)CC [IRINOTECAN] has an activity of 101%.
With N[C@@H](Cc1c[nH]c2ccccc12)C(=O)O [TRYPTOPHAN] the activity was 66%.
CC/C(=C(/CC)c1ccc(O)cc1)c1ccc(O)cc1 [DIETHYLSTILBESTROL] was tested, and the activity was 11%.
CNCCCN1c2ccccc2CCc2ccccc21 [DESIPRAMINE] showed an activity of 57%.
In the case of CC(C)[C@@H]1NC(=O)[C@H](CCCCN)NC(=O)[C@@H](Cc2c[nH]c3ccccc23)NC(=O)[C@H](Cc2ccc(O)cc2)NC(=O)[C@H](C)N(C)C(=O)[C@H](Cc2ccccc2)NC1=O [SEGLITIDE], the activity is reported as 94%.
CC1(C)[C@@H](O[C@H]2O[C@H](C(=O)O)[C@@H](O)[C@H](O)[C@H]2O[C@@H]2O[C@H](C(=O)O)[C@@H](O)[C@H](O)[C@H]2O)CC[C@]2(C)[C@H]3C(=O)C=C4[C@@H]5C[C@@](C)(C(=O)O)CC[C@]5(C)CC[C@@]4(C)[C@]3(C)CC[C@@H]12 [GLYCYRRHIZIN] was tested, and the activity was 5%.
Molecule COc1cccc([C@@]2(O)CCCC[C@@H]2CN(C)C)c1 [TRAMADOL] has an activity of 89%.
Work on O=c1cc(-c2ccc(O)cc2)oc2cc(O)cc(O)c12 [APIGENIN] yielded an activity of 94%.
Molecule COC(=O)C1=C(C)NC(C)=C(C(=O)OC(C)C)C1c1cccc2nonc12 (configuration not stated) [ISRADIPINE] has an activity of 46%.
C[n+]1ccc(-c2ccccc2)cc1 gave an activity of 72%.
With CC(C(=O)O)c1ccc(-c2ccccc2)c(F)c1 (configuration not stated) [FLURBIPROFEN] the activity was 108%.
For CC(NC(C)(C)C)C(=O)c1cccc(Cl)c1 (configuration not stated) [BUPROPION], the activity was 106%.
Cc1ccc(-c2cc(C(F)(F)F)nn2-c2ccc(S(N)(=O)=O)cc2)cc1 [CELECOXIB] was tested, and the activity was 46%.
Cc1ccc(NC(=O)c2ccc(CN3CCN(C)CC3)cc2)cc1Nc1nccc(-c2cccnc2)n1 [IMATINIB MESYLATE] gave an activity of 74%.
C[C@H]1O[C@@H](O[C@H]2[C@@H](O)C[C@H](O[C@H]3[C@@H](O)C[C@H](O[C@H]4CC[C@@]5(C)[C@H](CC[C@@H]6[C@@H]5C[C@@H](O)[C@]5(C)[C@@H](C7=CC(=O)OC7)CC[C@]65O)C4)O[C@@H]3C)O[C@@H]2C)C[C@H](O)[C@@H]1O [DIGOXIN] showed an activity of 99%.
COc1ccc2c(c1)[C@]13CCCC[C@@H]1[C@H](C2)N(C)CC3 [DEXTROMETHORPHAN] gave an activity of 57%.
CC(C)(C)NC(=O)[C@@H]1C[C@@H]2CCCC[C@@H]2CN1C[C@@H](O)[C@H](Cc1ccccc1)NC(=O)[C@H](CC(N)=O)NC(=O)c1ccc2ccccc2n1 showed an activity of 41%.
Work on O=C(CCCN1CCC(O)(c2ccc(Cl)cc2)CC1)c1ccc(F)cc1 [HALOPERIDOL] yielded an activity of 106%.
COc1ccc2c(c1OC)C(=O)O[C@@H]2[C@H]1c2c(cc3c(c2OC)OCO3)CCN1C [NOSCAPINE] was tested, and the activity was 78%.
In the case of CC(=O)Oc1ccc2c(c1)Oc1cc(OC(C)=O)ccc1C21OC(=O)c2cc(C(=O)O)ccc21, the activity is reported as 7%.
CC[C@H](C)C(=O)O[C@H]1C[C@H](O)C=C2C=C[C@H](C)[C@H](CC[C@@H](O)C[C@@H](O)CC(=O)O)[C@H]21 [PRAVASTATIN] was tested, and the activity was 135%.
Work on C#CC1(O)CC[C@H]2[C@@H]3CCc4cc(O)ccc4[C@H]3CC[C@@]21C (single isomer, unassigned) [ETHINYL ESTRADIOL] yielded an activity of 53%.
Molecule CCN(CC)Cc1cc(Nc2ccnc3cc(Cl)ccc23)ccc1O has an activity of 60%.
With CC(C)[C@H](N)C(=O)OCCOCn1cnc2c(=O)[nH]c(N)nc21 [VALACYCLOVIR] the activity was 94%.
Work on O=C(O)c1cc(/N=N/c2ccc(S(=O)(=O)Nc3ccccn3)cc2)ccc1O [SULFASALAZINE] yielded an activity of 77%.
With C[C@]12CC[C@H](OS(=O)(=O)O)CC1=CC[C@@H]1[C@@H]2CC[C@]2(C)C(=O)CC[C@@H]12 [PRASTERONE SULFURIC ACID] the activity was 395%.
CC(=O)CC(c1ccccc1)c1c(O)c2ccccc2oc1=O (configuration not stated) [WARFARIN] was tested, and the activity was 136%.
With Clc1ccccc1C(c1ccccc1)(c1ccccc1)n1ccnc1 [CLOTRIMAZOLE] the activity was 14%.
Work on COc1ccc(CCN2CCC(Nc3nc4ccccc4n3Cc3ccc(F)cc3)CC2)cc1 [ASTEMIZOLE] yielded an activity of 36%.
CC1=C(CC(=O)O)c2cc(F)ccc2/C1=C\c1ccc([S+](C)[O-])cc1 (configuration not stated) was tested, and the activity was 151%.
Work on O=c1c(-c2ccc(O)cc2)coc2cc(O)cc(O)c12 [GENISTEIN] yielded an activity of 101%.
Work on S=C=NCCc1ccccc1 [PHENETHYLISOTHIOCYANATE] yielded an activity of 94%.
Work on CC1(C)S[C@@H]2[C@H](NC(=O)Cc3ccccc3)C(=O)N2[C@H]1C(=O)O [PENICILLIN G] yielded an activity of 76%.
For C[C@]12CC[C@@H]3c4ccc(OS(=O)(=O)O)cc4CC[C@H]3[C@@H]1CCC2=O [ESTRONE SULFURIC ACID], the activity was 300%.
For CC(C)OC(=O)C(C)(C)Oc1ccc(C(=O)c2ccc(Cl)cc2)cc1 [FENOFIBRATE], the activity was 46%.
Work on CCOC(=O)C1=C(C)NC(C)=C(C(=O)OC)C1c1cccc([N+](=O)[O-])c1 (configuration not stated) [NITRENDIPINE] yielded an activity of 224%.
Work on COc1ccc2c(c1)c(CC(=O)O)c(C)n2C(=O)c1ccc(Cl)cc1 [INDOMETHACIN] yielded an activity of 308%.
In the case of C[C@@H](NCCc1ccc(O)cc1)[C@@H](O)c1ccc(O)cc1 [RITODRINE], the activity is reported as 113%.
With CC#C[C@]1(O)CC[C@H]2[C@@H]3CCC4=CC(=O)CCC4=C3[C@@H](c3ccc(N(C)C)cc3)C[C@@]21C [MIFEPRISTONE] the activity was 134%.
For CC(C)N(CC[C@](C(N)=O)(c1ccccc1)c1ccccn1)C(C)C [(S)-DISOPYRAMIDE], the activity was 104%.

Same assay, conditions: sf9
Work on COc1ccc2cc([C@H](C)C(=O)O)ccc2c1 [NAPROXEN] yielded an activity of 92%.
In the case of CC(C)(C)c1ccc(C(O)CCCN2CCC(C(O)(c3ccccc3)c3ccccc3)CC2)cc1 (configuration not stated) [TERFENADINE], the activity is reported as 3%.
In the case of CN(C)CCCN1c2ccccc2Sc2ccc(Cl)cc21 [CHLORPROMAZINE], the activity is reported as 58%.
Work on CC(C)(C)NC[C@H](O)COc1nsnc1N1CCOCC1 [TIMOLOL] yielded an activity of 91%.
Work on CCCCc1oc2ccccc2c1C(=O)c1cc(I)c(OCCN(CC)CC)c(I)c1 [AMIODARONE] yielded an activity of 66%.
Cc1cccc(C)c1OCC(=O)N[C@@H](Cc1ccccc1)[C@@H](O)C[C@H](Cc1ccccc1)NC(=O)[C@H](C(C)C)N1CCCNC1=O [LOPINAVIR] showed an activity of 33%.
Molecule CNCCCC12CCC(c3ccccc31)c1ccccc12 [MAPROTILINE] has an activity of 56%.
COc1cccc2c1C(=O)c1c(O)c3c(c(O)c1C2=O)C[C@@](O)(C(=O)CO)C[C@@H]3O[C@H]1C[C@H](N)[C@H](O)[C@H](C)O1 [DOXORUBICIN] was tested, and the activity was 87%.
In the case of CCN(CC)CCCC(C)Nc1ccnc2cc(Cl)ccc12 (configuration not stated) [CHLOROQUINE], the activity is reported as 102%.
For COC(=O)C1=C(C)NC(C)=C(C(=O)OCCN(C)Cc2ccccc2)C1c1cccc([N+](=O)[O-])c1 (configuration not stated) [NICARDIPINE], the activity was 59%.
Work on COc1ccc2c3c([nH]c2c1)[C@H](CC(C)C)N1C(=O)[C@H](CCC(=O)OC(C)(C)C)NC(=O)[C@@H]1C3 yielded an activity of 73%.
Work on COc1cc2nc(N3CCN(C(=O)C4CCCO4)CC3)nc(N)c2cc1OC (configuration not stated) [TERAZOSIN] yielded an activity of 94%.
Molecule CN(C)[C@@H]1C(O)=C(C(N)=O)C(=O)[C@@]2(O)C(O)=C3C(=O)c4c(O)cccc4[C@@](C)(O)[C@H]3C[C@@H]12 [TETRACYCLINE] has an activity of 110%.
N[C@@H](CCC(=O)N[C@@H](CS)C(=O)NCC(=O)O)C(=O)O [GLUTATHIONE] was tested, and the activity was 116%.
